The text below walks through data of patent US6383527B1, “Compositions comprising valerian extracts, isovaleric acid or derivatives thereof with a NSAID” (NPS Pharmaceuticals, Inc., priority 2001, dated 2002).

Data set [1] deals with CNS. The settings on record: in vivo; cited from earlier work.
The subject of data set [2] is recurrent excessive lower back pain. Description: Case report Example 1: valerian preparation and ibuprofen for recurrent, excessive lower back pain. Format: in vivo, human. Conditions: person; preparation taken by itself. The source says: These examples are provided for purposes of illustration and are not intended to be limiting of the invention. A person was complaining of recurrent excessive lower back pain from prior injuries. During a bout of lower back pain, they stated that […] could not sleep or sit comfortably and was in duress from the constant pain. […] It was stated that the ibuprofen would provide a decrease in inflammation and some analgesic therapy whereas the addition of the valerian and hops extract could provide a decrease in the muscle tone and analgesia as well, thereby allowing for relief from the pain. […] Their spouse stated that […] “acted like a new […]” because they were not grimacing and stooped from pain.

The conditions of data set [3]: acid- and heat-labile; release two moles of isovaleric acid per mole; cited from earlier work.
Data set [4] relates to excessive lower back pain. The data set is described as follows: Case report Example 2: valerian preparation and ibuprofen for acute muscle strain from overexertion. Conditions: person; ibuprofen taken alone. Type of data set: in vivo, human. The source says: These examples are provided for purposes of illustration and are not intended to be limiting of the invention. A person, complained of excessive lower back pain that interfered with sleeping and the general activities of daily living such as sitting or standing. They had injured their back while shoveling deep snow from their driveway and sidewalk. They had been taking ibuprofen but experiencing little relief. […] They continued to take the combination until their back healed and no longer gave their pain without medication.

The conditions of data set [5]: cited from earlier work.
The conditions of data set [6]: clinical; cited from earlier work.

SMILES strings stand for the structures.

As for `CCN(CC)C(=O)CC(C)C` [N,N-Diethyl isovaleramide], in data set [1], the CNS properties entry is given as “CNS stimulant (convulsant) properties”. On to `CC(=O)Nc1ccc(O)cc1` [acetaminophen], for which the “relief from lower back pain” value in data set [2] is listed as “without any useful sense of relief”.

`CC(=O)Oc1ccccc1C(=O)O` [aspirin]: the “relief from lower back pain” value in data set [2] is “without any useful sense of relief”. As to `CC(=O)O[C@H]1C[C@@H]2C(COC(=O)CC(C)C)=CO[C@@H](OC(=O)CC(C)C)[C@@H]2[C@@]12CO2` [didrovaltrate], the “survival in the stomach following oral administration” value in data set [3] is reported as “do not survive intact”. For the compound `CC(C)Cc1ccc(C(C)C(=O)O)cc1` (stereo not drawn) [ibuprofen], the “relief from lower back pain” value in data set [2] is reported as “without any useful sense of relief”; in data set [4] it was “little relief”. Regarding `CC(C)CC(N)=O` [isovaleramide], the “acute toxicity in vivo” value in data set [5] is “low acute toxicity”. The anxiolytic properties result in data set [6] is “clinically useful anxiolytic properties”.

For `CC(=O)OCC1=CO[C@@H](OC(=O)CC(C)C)[C@H]2C1=C[C@H](OC(=O)CC(C)C)[C@]21CO1` [valtrate], the “survival in the stomach following oral administration” value in data set [3] is on record as “do not survive intact”.
